In paper PMC11943016, “TBG096 Ameliorates Memory Deficiency in AD Mouse Model via Promoting Neurogenesis and Regulation of Hsc70/HK2/PKM2/LAMP2A Signaling Pathway” (International Journal of Molecular Sciences, 2025):

Assays:
HFD-induced AD mice [1] = assay: Immunofluorescence staining of brain tissue of HFD-induced AD mice; type: in vivo
Text: (§1) In experiments with the HFD-induced AD mouse model, a total of 60 Institute of Cancer Research (ICR) male mice aged 4 weeks from Zhejiang Academy of Medical Sciences (Hangzhou, China) were used for animal experiments (permit number: ZJU20230121). The animals were provided free access to a chow diet and water. […] The HFD and normal diet were alternated every two days to maintain freshness. Weekly measurements were taken for water intake, food intake, and body weight. In the eighteenth week, the mice underwent Y-maze and NOR tests. The Morris water maze test was conducted during the nineteenth week. After confirming the successful establishment of the AD model characterized by cognitive impairment, oral administration of treatments commenced. […] Each group had 10 mice.
At the end of animal experiments, three mice in each group were taken for heart perfusion with cold PBS and 4% paraformaldehyde. After that, the brains of mice were fixed with 4% paraformaldehyde for 24 h and gradually dehydrated with 15% and 30% sucrose solutions for 48 h, respectively. The fixed and embedded brain sample was placed in a cryostat and cut into 20 µm thick slices with a cryostat (Thermo Fisher, Waltham, MA, USA), and brain slices in the hippocampus and cortex were collected. Finally, the brain slices were placed in antifreeze (glycerol/ethylene/PBS = 3:3:4) and kept in a refrigerator at −30 °C until immunostaining. The brain slices were fixed on a glass slide and hydrated with PBS for 5 min. Then, blocking buffer was added to the brain slices and incubated at room temperature for 1 h. Brain slices were washed twice with PBS and incubated with anti-NeuN, anti-BrdU, anti-Iba1, anti-GFAP, anti-INOS, anti-APP, or anti-p-Tau at 4 °C for 24 h, respectively. Subsequently, the brain slices were incubated with secondary antibody (goat anti-rabbit IgG H&L (Alexa Fluor® 488) or rabbit anti-mouse IgG (Cy3 conjugate)) at room temperature for 2 h after washing with PBS three times. Finally, a cover glass was used to lightly cover the slices stained with DAPI. […] Biomarker proteins in the cerebral cortex and hippocampus were digitized by Image J software (National Institutes of Health, Bethesda, MD, USA).

gut microbiota = assay: Gut microbiota analysis in HFD-induced AD mice; type: in vivo; conditions: Met 140 mg/kg
Text: as §1

HFD-induced AD mice [2] = assay: Behavioral tests (Y-maze, NOR, MWM) in HFD-induced AD mice; type: in vivo
Text: as §1
The Y-maze test is used to evaluate working memory, and the process was referenced in another report. In brief, the Y-maze consists of three black plastic arms (A, B, and C) with the same length (30 cm), width (10 cm), height (15 cm), and 120° relative to adjacent arms. Each mouse is placed facing the wall of arm A and allowed to explore the maze freely for 5 min. The behavior of mice is recorded with a video recorder, and the data are stored in ANY-MAZE software version 6.35 (Stoelting, Chicago, IL, USA). The total number of entries made by the mice into each arm—considered as either whole or half-body entries—is recorded. An alternation is defined as a mouse moving through all three arms without returning to the initial arm on the third visit. Alternation: number of alternations/(number of arm entries − 2) × 100%.
The NOR test is utilized to assess the working memory capabilities of mice. The NOR apparatus consists of an open, black plastic box, two identical objects, and one novel object. The activity of the mice within the open field is captured and recorded using a video recorder, with data subsequently stored in ANY-MAZE software. The test is conducted over a span of two days, incorporating habituation, training, and testing stages. During the habituation phase, the mice are placed in the box devoid of any objects, allowing them to explore freely for a duration of five min. Following a 24 h interval, the NOR test is administered, which consists of both the training and testing phases. In the training phase, each mouse is positioned in the central area of the box, where two identical objects are placed equidistant from the mouse. Each training session lasts for five minutes. After a one-hour break, one of the identical objects is replaced with a new, distinct object, and the exploration duration for each mouse is recorded. Exploration is defined by the time a mouse spends touching or sniffing an object. The exploration times during both the training and testing phases are documented via video recording, and the data are organized within ANY-MAZE software. The object recognition index was defined as follows: (time spent on the new object)/(time spent on the old object + time spent on the new object) × 100%. The data are calculated by ANY-MAZE software.
The MWM test is used to measure spatial memory and long-term memory. The whole MWM equipment includes a circular water tank (diameter 1.5 m, depth 50 cm) with warm water (22 ± 1 °C) 35 cm deep, a platform (diameter 14 cm, immersed 1 cm in water), a camera, and a computer for data analysis. The MWM test is conducted over five 5 days: 4 days for training and 1 day for testing. The pool is divided into four quadrants, and at least three quadrants are tested at a time. In the training stage, the mouse is placed on the wall of one of the four quadrants and allowed to swim and find the platform hidden underwater within 120 s. If the mouse cannot find the platform, the experimenter will guide it and let it stay on the platform for 10 s. The experiment lasts for 4 days. On the fifth day of the test phase, the platform is removed, and each mouse is placed in a similar starting position and allowed to move freely for 90 s. […]

PC12 cells [3] = assay: MTT assay, cytotoxicity in PC12 cells; type: cell-based; conditions: 10 µM
Procedure: PC12 cells were firstly inoculated into a 24-well plate and cultured for 24 h. Following this, samples at different doses were added and cultured for 24 h. Subsequently, the 0.5 mL serum-free medium containing MTT (0.2 mg/mL) of each well was used to replace the original medium and incubated for 2 h. After removing the solution, the purple crystal was dissolved in 200 μL of DMSO, and the absorbance was measured at 570 nm. The cell survival rate for each group was calculated based on the control group.

PC12 cells [4] = assay: NGF-mimic activity: neurite outgrowth in PC12 cells; type: cell-based; conditions: 0.3, 1, and 3 µM, 48 h
Procedure: The neurogenic activity of samples was evaluated according to the methods described in our previous study. Briefly, approximately 5 × 10^4 cells were seeded in each well of a 24-well microplate and were cultured under a humidified atmosphere with 5% CO2 at 37 °C for 24 h. Then, the medium in each well was replaced with 1 mL of serum-free DMEM containing 40 ng/mL NGF as a positive control, 0.5% DMSO as a negative control, and the test sample after 24 h, respectively. About 100–200 cells of each well were counted from a randomly selected area and repeated thrice after 48 h. A cell-bearing neurite outgrowth longer than the diameter of the cell body was identified as a positive cell. The activity was presented as the percentage of positive cells in the selected area.
(§2) In the inhibitor experiment of NGF-mimic activity, approximately 5 × 10^4 PC12 cells were seeded into each well of a 24-well plate and incubated for 24 h. After that, the medium in each well was replaced with 500 μL of serum-free DMEM or the serum-free DMEM containing VER155008, the inhibitor of Hsc70 protein, incubated in a CO2 incubator for 30 min. Subsequently, 500 μL of serum-free DMEM containing different samples was added and cultured, respectively. The PC12 cells with neurite outgrowth were recorded after 48 h. For the Western blot analysis, the experiment included five groups, namely the control (C) group, the NGF (40 ng/mL) group, the TBG096 (1 µM) group, the VER155008 (3 µM) group, and the VER155008 (3 µM) + TBG096 (1 µM) group. Afterwards, approximately 2 × 10^6 cells per dish were seeded into ten 6 cm Petri dishes with 5 mL of DMEM medium and incubated for 24 h. After giving different treatments with samples, the cells continued to culture for 4 h. Protein extraction was conducted to prepare for the subsequent Western blot analysis.

[5] = tested on: Hsc70, LAMP2A, APP, PKM2, and HK2 proteins; assay: Western blot of CMA proteins in PC12 cells (inhibitor experiment); type: cell-based; conditions: TBG096 1 µM, VER155008 3 µM, 4 h, vs control
Procedure: as §2
Approximately 50 mg of cerebral cortex from brain tissues was homogenized in RIPA lysis buffer containing 1% protease inhibitor and 1% phosphatase inhibitor. Then, the sample was centrifuged at 12,000 rpm at 4 °C for 10 min, and the supernatant was transferred to a new tube. Protein concentrations were determined using the BCA kit, and 30 µg of protein from each sample was denatured by heating in water at 100 °C for 10 min. Subsequently, approximately 30 µg of protein from each sample was loaded into each well. After conducting gel electrophoresis at 80 V for 15 min and then at 120 V for 60 min, the proteins were transferred to the polyvinylidene fluoride (PVDF) membrane for 90 min. Then, the PVDF membrane was blocked with 5% skimmed milk at room temperature for 60 min. The membrane was incubated with a diluted primary antibody at 4 °C overnight. After washing the membrane three times with TBST buffer (1× TBS buffer containing 0.05% (v/v) tween 20), it was incubated with the secondary antibody for 1 h at room temperature. Finally, the strip was developed using chemiluminescence ECL reagent, and the blot density was quantified with ImageJ (National Institutes of Health, Bethesda, MD, USA).

PC12 cells [6] = assay: EdU cell proliferation in PC12 cells (inhibitor experiment); type: cell-based; conditions: VER155008 3 µM, NH4Cl 250 µM
Procedure: In the inhibitor experiment of EdU cell proliferation activity, PC12 cells were seeded into each well of a 24-well plate as above for 24 h. Then, the medium in each well was replaced with 500 μL of serum-free […] containing VER155008 (inhibitor of Hsc70, 3 µM), or NH4Cl (inhibitor of lysosome, 250 µM) for 30 min according to the literature, and 500 μL of serum-free DMEM containing different samples was added and cultured for 24 h, respectively. After that, PC12 cells were treated with EdU for 2 h according to the operation steps of the BeyoClick™ EdU-488 cell proliferation detection kit (#C0071S, Beyotime Biotechnology, Shanghai, China). After cell labeling, the supernatant was removed. Then, PC12 cells were fixed, washed, and blocked, and the click reaction solution was added at room temperature for 30 min. After that, DAPI staining was performed for 10 min. Finally, PC12 cells were detected by fluorescence microscope (Olympus IX53, Tokyo, Japan).

[7] = cited from earlier work

Question: For `CN(C)C(=N)N=C(N)N` [Met, Metformin, reference compound], which “APP and phosphorylation Tau protein in the hippocampus” value (HFD-induced AD mice [1]; immunofluorescence) is on record?
Answer: Its value is “reduction”.

Question: What about the “number of mature neurons (NeuN) in the cerebral cortex” value (HFD-induced AD mice [1]; vs HFD-only group) of the same compound?
Answer: The value was “increased numbers of mature neurons”.

Question: And the “abundance of Firmicutes (decreased by HFD) and Bacteroidota (increased by HFD)” value (gut microbiota; TBG096 20 mg/kg)?
Answer: Its value is “reversed”.

Question: And the “abundance of Ligilactobacillus” value (gut microbiota; TBG096 5 and 20 mg/kg)?
Answer: The value was “improved”.

Question: What about the “number of arm entries, Y-maze test” value (HFD-induced AD mice [2]; TBG096 0.1, 5, 20 mg/kg, Met 140 mg/kg, 54 days) of the same compound?
Answer: The value was “No significant differences”.

Question: And the “escape latency, MWM training phase” value (HFD-induced AD mice [2]; fourth day, Met 140 mg/kg and all doses of TBG096)?
Answer: The value was “markedly reduced”.

Question: What about the “number of platform crossings, MWM test phase” value (HFD-induced AD mice [2]; vs HFD-only group) of the same compound?
Answer: Its value is “increased significantly”.

Question: With `O=C(SCCCCCCCCSCCCC(F)(F)F)c1cccc(O)c1O` [compound 4] as the compound, how does the “toxicity in PC12 cells (MTT)” value (PC12 cells [3]) read?
Answer: The value was “some level of toxicity”.

Question: And the “percentage of PC12 cells exhibiting neurite growth” value (PC12 cells [4])?
Answer: Its value is “superior activity”.

Question: For `N#Cc1ccc(COC[C@H]2O[C@@H](n3c(NCc4ccc(Cl)c(Cl)c4)nc4c(N)ncnc43)[C@H](O)[C@@H]2O)cc1` [VER155008, reference compound], which APP protein expression [5] is on record?
Answer: The APP protein expression was “significantly increased”.

Question: What about the Hsc70 protein level [5] of the same compound?
Answer: The Hsc70 protein level was “significantly decreased”.

Question: And the LAMP2A protein level [5]?
Answer: Its LAMP2A protein level is “significantly increased”.

Question: What about the PKM2 protein expression [5] of the same compound?
Answer: Its PKM2 protein expression is “significantly increased”.

Question: And the “effect of inhibitor on the EdU cell proliferation activity of TBG096” value (PC12 cells [6])?
Answer: Its value is “reverse the activity”.

Question: For “NGF: Nerve growth factor, the first recognized neurotrophic factor; positive control in PC12 assay”, which BBB penetration [7] is on record?
Answer: Its BBB penetration is “cannot penetrate the BBB”.

Question: Which “effect of inhibitor on the EdU cell proliferation activity of TBG096” value (PC12 cells [6]) does the source give for `Cl.N` [NH4Cl] here?
Answer: Its value is “reverse the activity”.
